Article PMC7913925, “Design and Evaluation of a Polypeptide That Mimics the Integrin Binding Site for EDA Fibronectin to Block Profibrotic Cell Activity” (International Journal of Molecular Sciences, 2021)
Bridges are numbered along the chain shown (N, C = ends). Where no end group is shown, it is not given here.

Key:
[1] = system: NIH/3T3 fibroblasts, collagen gel contraction; assay: Collagen gel contraction assay; assay type: cell-based, mouse; settings: TGF-β1 10 ng/mL + AF38Pep 10 µg/mL vs TGF-β1 alone
Description: Approximately 2 × 10^4/mL NIH/3T3 fibroblasts were added to a solution containing 3 mg/mL rat tail collagen type I (BD Biosciences, San Diego, CA, USA), 260 mM NaHCO3, 200 mM HEPES and 50 mM NaOH. To each well of a 24-well cell culture plate, 500 µL of collagen-cell solution was added and allowed to polymerize at 37 °C for 1 h. The gels were carefully detached from the well walls before resuspension of gels in 1% FBS-DMEM and maintained at 37 °C, in a 5% CO2 atmosphere for 24 h. The DMEM medium was removed and replaced with serum-free DMEM medium with or without 10 ng/mL TGF-β1 and/or 10 µg/mL AF38Pep. Gels were photographed and measured at days 0, 1, 2, 4, and 6 after treatment. The average contraction values were obtained using ImageJ v1.37c (NIH, Bethesda, MD, USA) and are expressed as a percentage of contraction versus the initial gel diameter at 0 days.

EDA-FN = assay: Western blot total protein EDA-FN; assay type: cell-based; settings: 48 h, TGF-β1+AF38Pep
[2] = system: Mmp9 mRNA in NIH/3T3 fibroblasts; assay: qRT-PCR Mmp9 mRNA; assay type: cell-based, mouse; settings: 48 h, TGF-β1 10 ng/mL
Description: (§1) Reverse transcription (RT) and real-time quantitative PCR (qRT-PCR) were used to assess ACTA2/Acta2, Col1a1, Col3a1, Fn1, Eda-Fn1, Mmp9, Tgfb1, Ltbp1, Hic5, and Mrtfa mRNA expressions. Custom PCR primers were designed in-house (Table 2) and then synthesized by BGI (Beijing, China). Cells were grown in 6-well culture plates and washed with phosphate buffered saline (PBS) before lysis with TRIzon Reagent (CWBio, Beijing, China) and total RNA purification according to the manufacturer’s protocol. Reverse transcription was carried using the TransScript First-Strand cDNA Synthesis SuperMix kit according to the manufacturer’s protocol (TransGen, Beijing, China), using the random primer method for the initiation of cDNA synthesis. Nuclease-free H2O replaced the RNA sample to serve as a negative control for the reverse transcription reaction. For qRT-PCR, 10 µL 2× TransStart Top Green qPCR SuperMix was added to each well of a 96-well PCR plate containing 0.4 µL forward primer, 0.4 µL reverse primer, […], and nuclease-free water to a total volume of 20 µL. The qRT-PCR reaction was completed using a CFX96 Real-Time PCR Detection System (Bio-Rad Laboratories, Hercules, CA, USA). Amplification used the following parameters: 94 °C for 30 s, followed by 40 cycles of 94 °C for 5 s, 55 °C for 15 s, 72 °C for 10 s, and then a dissociation stage (melt-curve). […]

[3] = system: F-actin in NIH/3T3 fibroblasts; assay: F-actin staining; assay type: cell-based, mouse; settings: 48 h, TGF-β1 10 ng/mL, AF38Pep 10 µg/mL
Description: Cells were grown to 40% confluence in 8-well glass chamber slides (Nunc, Thermo Fisher Scientific), prior to growth arrest and treatment. Cells were washed with PBS before fixation in 4% paraformaldehyde for 10 min at room temperature. Next, cells were permeabilized with 0.1% (v/v) Triton X-100 in PBS for 10 min at room temperature. For visualization of ECM, cells were fixed with 100% ice-cold methanol for 8 min at −20 °C. Slides were washed with PBS and blocked with 1% goat serum (TBD Science, Tianjin, China) for 30 min before washing with 0.1% (w/v) BSA in PBS. Subsequently, slides were incubated with monoclonal mouse anti-α-SMA antibody (Sigma-Aldrich, 1:50) diluted in 0.1% BSA-PBS, overnight at 4 °C. After further wash steps, slides were incubated with goat anti-mouse IgG CF-488 secondary antibody (Abcam, 1:1000) in 0.1% BSA-PBS for 1 h at room temperature and under darkness. For F-actin visualization, after fixation and permeabilization; cells were incubated with phalloidin conjugated to FITC (Sigma-Aldrich) in 0.1% BSA-PBS, overnight at 4 °C. Cells were then mounted in DAPI Fluoromount-G (Thermo Fisher Scientific) and imaged using a Zeiss Axio Imager Z1 UV fluorescence microscope (Zeiss, Jena, Germany) and a Leica TCS SP5 laser scanning confocal microscope (Leica Biosystems, Baden-Württemberg, Germany).

[4] = system: Hic5 mRNA in NIH/3T3 fibroblasts; assay: qRT-PCR Hic5 mRNA; assay type: cell-based, mouse; settings: 48 h, TGF-β1 10 ng/mL
Description: as §1

VCAM1–ITGA4 interaction = assay: Co-IP of VCAM1 with ITGA4; assay type: cell-based; settings: 48 h, Co-IP with anti-ITGA4
Description: Total protein was extracted from cells in RIPA lysis buffer containing 1% protease inhibitor cocktail, 1% phenylmethylsulfonyl fluoride, and 1% sodium orthovanadate (Santa Cruz Biotechnology, Santa Cruz, CA, USA). Protein was quantified by Micro BCA Protein Assay Kit (Thermo Fisher Scientific) before 7.5% SDS-PAGE and transfer to nitrocellulose. Membranes were blocked with 5% bovine serum albumin (BSA; Sigma-Aldrich)/0.5% Tween-20 (Sigma-Aldrich)/PBS for 1 h, RT, followed by incubation with primary antibodies diluted in 1% BSA/0.1% Tween-20/PBS, overnight at 4 °C. Primary antibodies were: anti-phosphoY204/Y187 ERK1/2 (1:1000); anti-ERK1/2 (1:1000); anti-phosphoY861 FAK (1:1000); anti-FAK (1:2000). Immunoblotting for anti-GAPDH (1:2500) was used as a protein loading control. Following wash steps, membranes were incubated in goat anti-rabbit IgG H&L secondary antibody (horseradish peroxidase, HRP conjugate, […]) (Abcam; 1:5000 dilution, 1% BSA/0.1% Tween-20/PBS). Detection was performed using Immobilon reagent (Merck Millipore, Burlington, MA, USA) and imaged using a Tanon 5500 Chemiluminescent Imaging System (Tanon, Shanghai, China).
A volume of 25 µg total protein from cell lysate in nondenaturing lysis buffer containing protease inhibitors was immunoprecipitated (IP) using anti-ITGA4 antibodies linked to protein A/G sepharose beads (Abcam). […]

## VMPYISTTPAKPCTSENCGNSWYGGFKSKNENKIYFIN (disulfide 13-18 (inferred)) [AF38Pep]
[1]; 96 h
  collagen gel contraction: significantly delayed collagen gel contraction
[1]; 144 h
  collagen gel contraction: maintained a significant difference in contraction
EDA-FN
  TGF-β1-driven EDA-FN total protein increase: marginally, but significantly, attenuated
[2]
  MMP9 mRNA expression: attenuated
[3]
  F-actin fiber assembly: cellular actin reassembly into F-actin fibers still occurred
[4]
  HIC5 mRNA expression: attenuated
VCAM1–ITGA4 interaction
  VCAM1–ITGA4 binding: unaffected by cell treatments and remained at basal levels
